# Test results from patent US10633419B2, “Immunomodulators” (BRISTOL-MYERS SQUIBB COMPANY, priority 2014, dated 2020).
# pIC50: −log10 of the molar value. Starred links: 1 amine or outer side, 2 acyl side, 3 side chain; linkers in the order of their positions; H or OH if unused. Positions of bridges follow the written chain, without caps; N, C: chain ends. Non-standard residues stand in square brackets, D forms with d. Residues, ends and D or L forms follow the SMILES beside them. ξ: configuration not given here. *: point of attachment. δOrn(Nα-Octadecanedioyl) = O=C(O)CCCCCCCCCCCCCCCCC(=O)N[C@@H](CCCN*)C(=O)O; Dap(Nα-HOOC(CH2)16CO)OH = O=C(O)CCCCCCCCCCCCCCCCC(=O)N[C@@H](CN*)C(=O)O; X11 = O=C(O)CCCCCCCCCCCCC(=O)N[C@@H](CCC(=O)NCCCOCCOCCOCCCN*)C(=O)O; Trp(1-CH2COOH) = N[C@@H](Cc1cn(CC(=O)O)c2ccccc12)C(=O)O; X9 = O=C(O)CCCCCCCCCCCCCCCCC(=O)N[C@@H](CCN*)C(=O)O; X10 = O=C(O)CCCCCCCCCCCCCCC(=O)N[C@@H](CN*)C(=O)O; X24 = O=C(C[C@@H](Cc1ccc(O)cc1)C(=O)[*:1])C[*:2]; Phe(4-F) = N[C@@H](Cc1ccc(F)cc1)C(=O)O; γGlu = O=C(O)[C@H](CCC(=O)[*:2])N[*:1]; d(cisHyp) = O=C(O)[C@H]1C[C@@H](O)CN1; PEG6 = NCCOCCOCCOCCOCCOCCOCCC(=O)O; Hyp = O=C(O)[C@@H]1C[C@@H](O)CN1; Myristoyl = CCCCCCCCCCCCCC(=O)*; NMeNle = CCCC[C@H](NC)C(=O)O; Pip = O=C(O)[C@@H]1CCCCN1; NMeA = CN[C@@H](C)C(=O)O; Pra = C#CC[C@H](N)C(=O)O; Aun = NCCCCCCCCCCC(=O)O; Dab = NCC[C@H](N)C(=O)O; Dap = NC[C@H](N)C(=O)O; ξD = NC(CC(=O)O)C(=O)O
# Target: T1, PD-L1 (Homo sapiens, UniProt Q9NZQ7)
# T1 construct: hPDL1(19-239)-TVMV-His; made in house; host or cells: HEK293T
# Assay: PD-1/PD-L1 Homogenous Time-Resolved Fluorescence (HTRF) binding assay (PD-1-Ig/PD-L1-His)
# Details: inhibition of PD-1-Ig binding to PD-L1-TVMV-His; value given as range class; read-out: HTRF IC50
# Excerpt: The ability of the macrocyclic peptides of the present disclosure to bind to PD-L1 was investigated using a PD-1/PD-L1 Homogenous Time-Resolved Fluorescence (HTRF) binding assay.
# Homogenous Time-Resolved Fluorescence (HTRF) Assays of Binding of Soluble PD-1 to Soluble PD-L1. Soluble PD-1 and soluble PD-L1 refers to proteins with carboxyl-end truncations that remove the transmembrane-spanning regions and are fused to heterologous sequences, specifically the Fc portion of the human immunoglobuling G sequence (Ig) or the hexahistidine epitope tag (His). All binding studies were performed in an HTRF assay buffer consisting of dPBS supplemented with 0.1% (w/v) bovine serum albumin and 0.05% (v/v) Tween-20. For the PD-1-Ig/PD-L1-His binding assay, inhibitors were pre-incubated with PD-L1-His (10 nM final) for 15 m in 4 μl of assay buffer, followed by addition of PD-1-Ig (20 nM final) in 1 μl of assay buffer and further incubation for 15m. PD-L1 fusion proteins from either human, cynomologous macaques, mouse, or other species were used. HTRF detection was achieved using europium crypate-labeled anti-Ig monoclonal antibody (1 nM final) and allophycocyanin (APC) labeled anti-His monoclonal antibody (20 nM final). Antibodies were diluted in HTRF detection buffer and 5 μl was dispensed on top of binding reaction. The reaction was allowed to equilibrate for 30 minutes and signal (665 nm/620 nm ratio) was obtained using an EnVision fluorometer. Additional binding assays were established between PD-1-Ig/PD-L2-His (20 and 5 nM, respectively), CD80-His/PD-L1-Ig (100 and 10 nM, respectively) and CD80-His/CTLA4-Ig (10 and 5 nM, respectively). Binding/competition studies between biotinylated Compound No. 71 and human PD-L1-His were performed as follows. Macrocyclic peptide inhibitors were pre-incubated with PD-L1-His (10 nM final) for 60 minutes in 4 μl of assay buffer followed by addition of biotinylated Compound No. 71 (0.5 nM final) in 1 μl of assay buffer. Binding was allowed to equilibrate for 30 minutes followed by addition of europium crypated labeled Streptavidin (2.5 pM final) and APC-labeled anti-His (20 nM final) in 5 μl of HTRF buffer. The reaction was allowed to equilibrate for 30m and signal (665 nm/620 nm ratio) was obtained using an EnVision fluorometer.
# Recombinant Proteins. Carboxyl-truncated human PD-1 (amino acids 25-167) with a C-terminal human Ig epitope tag [hPD-1 (25-167)-3S-IG] and human PD-L1 (amino acids 18-239) with a C-terminal His epitope tag [hPD-L1(19-239)-tobacco vein mottling virus protease cleavage site (TVMV)-His] were expressed in HEK293T cells and purified sequentially by recombinant Protein A affinity chromatography and size exclusion chromatography. Human PD-L2-His (Sino Biologicals), CD80-His (Sino Biologicals), CTLA4-Ig (RnD Systems) were all obtained through commercial sources.
# T1 sequence (Q9NZQ7 with tags, fused parts or gaps): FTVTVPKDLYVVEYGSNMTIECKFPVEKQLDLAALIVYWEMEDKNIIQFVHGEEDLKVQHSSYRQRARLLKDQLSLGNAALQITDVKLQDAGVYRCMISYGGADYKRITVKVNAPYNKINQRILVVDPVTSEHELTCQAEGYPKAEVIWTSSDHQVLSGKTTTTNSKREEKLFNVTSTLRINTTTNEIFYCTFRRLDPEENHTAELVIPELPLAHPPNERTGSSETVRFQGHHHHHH
row,Compound,pIC50
1,CCCC[C@H]1C(=O)N(C)[C@@H](CCCC)C(=O)N[C@@H](CC(C)C)C(=O)N[C@H](C(=O)NCC(=O)N[C@@H](CCC(=O)NCCC[C@H](NC(=O)CCCCCCCCCCCCCCCCC(=O)O)C(=O)O)C(=O)O)CSCC(=O)N[C@@H](Cc2ccc(F)cc2)C(=O)N2CCCC[C@H]2C(=O)N[C@@H](CC(=O)O)C(=O)N2CCC[C@H]2C(=O)N[C@@H](CN)C(=O)N[C@@H](CC(C)C)C(=O)N2C[C@H](O)C[C@H]2C(=O)N[C@@H](Cc2c[nH]c3ccccc23)C(=O)N[C@@H](CCN)C(=O)N[C@@H](Cc2cn(CC(=O)O)c3ccccc23)C(=O)N1C [Example 13146] ({CH2CO}-[Phe(4-F)][Pip]DP[Dap]L[Hyp]W[Dab][Trp(1-CH2COOH)][NMeNle][NMeNle]LCGE(δOrn(Nα-Octadecanedioyl))-OH; thioether N-14),7.00 to 8.00
2,CCCC[C@H]1C(=O)N(C)[C@@H](CCCC)C(=O)N[C@@H](CC(C)C)C(=O)N[C@H](C(=O)NCC(=O)NCC(=O)NCC(=O)NCCCCCCCCCCC(=O)O)CSCC(=O)N[C@@H](Cc2ccc(O)cc2)C(=O)N(C)[C@@H](C)C(=O)N[C@@H](CC(N)=O)C(=O)N2CCC[C@H]2C(=O)N[C@@H](CN)C(=O)N[C@@H](CCC(=O)O)C(=O)N2C[C@H](O)C[C@H]2C(=O)N[C@@H](Cc2c[nH]c3ccccc23)C(=O)N[C@@H](CCN)C(=O)N[C@@H](Cc2cn(CC(=O)O)c3ccccc23)C(=O)N1C [Example 11093] ({CH2CO}-Y[NMeA]NP[Dap]E[Hyp]W[Dab][Trp(1-CH2COOH)][NMeNle][NMeNle]LCGGG[Aun]-OH; thioether N-14),7.00 to 8.00
3,CCCCCCCCCCCCCC(=O)NCCCC[C@H](NC(=O)C(CC(=O)O)NC(=O)CCOCCOCCOCCOCCOCCOCCNC(=O)CNC(=O)[C@@H]1CSCC(=O)C[C@@H](Cc2ccc(O)cc2)C(=O)N(C)[C@@H](C)C(=O)N[C@@H](CC(=O)O)C(=O)N2CCC[C@H]2C(=O)N[C@@H](Cc2cnc[nH]2)C(=O)N[C@@H](CC(C)C)C(=O)N2C[C@H](O)C[C@H]2C(=O)N[C@@H](Cc2c[nH]c3ccccc23)C(=O)N[C@@H](CO)C(=O)N[C@@H](Cc2c[nH]c3ccccc23)C(=O)N(C)[C@@H](CCCC)C(=O)N(C)[C@@H](CCCC)C(=O)N[C@@H](CCCNC(=N)N)C(=O)N1)C(N)=O (stereo partly shown) [Example 11013] ([NMeA]DPHL[Hyp]WSW[NMeNle][NMeNle]RCG[PEG6][ξD]K(Myristoyl)-NH2; linker N-13 via X24),7.00 to 8.00
4,CCCCCCCCCCCCCC(=O)NCc1cn(CC[C@H](NC(=O)CNC(=O)[C@@H]2CSCC(=O)N[C@@H](Cc3ccc(O)cc3)C(=O)N(C)[C@@H](C)C(=O)N[C@@H](CC(N)=O)C(=O)N3CCC[C@H]3C(=O)N[C@@H](CN)C(=O)N[C@@H](CC(C)C)C(=O)N3C[C@H](O)C[C@H]3C(=O)N[C@@H](Cc3c[nH]c4ccccc34)C(=O)N[C@@H](CO)C(=O)N[C@@H](Cc3csc4ccccc34)C(=O)N(C)[C@@H](CCCC)C(=O)N(C)[C@@H](CCCC)C(=O)N[C@@H](CCCNC(=N)N)C(=O)N2)C(N)=O)nn1 [Example 13051],7.00 to 8.00
5,CCCC[C@H]1C(=O)N(C)[C@@H](CCCC)C(=O)N[C@@H](CC(C)C)C(=O)N[C@H](C(=O)NCCOCCOCCOCCOCCOCCOCCC(=O)NCCCCCCCCCCC(=O)O)CSCC(=O)N[C@@H](Cc2ccc(O)cc2)C(=O)N(C)[C@@H](C)C(=O)N[C@@H](CC(N)=O)C(=O)N2CCC[C@H]2C(=O)N[C@@H](CN)C(=O)N[C@@H](CCC(N)=O)C(=O)N2C[C@H](O)C[C@@H]2C(=O)N[C@@H](Cc2c[nH]c3ccccc23)C(=O)N[C@@H](CCN)C(=O)N[C@@H](Cc2cn(CC(=O)O)c3ccccc23)C(=O)N1C [Example 11061] ({CH2CO}-Y[NMeA]NP[Dap]Q[d(cisHyp)]W[Dab][Trp(1-CH2COOH)][NMeNle][NMeNle]LC[PEG6][Aun]-OH; thioether N-14),5.80 to 7.00
6,CCCC[C@H]1C(=O)N(C)[C@@H](CCCC)C(=O)N[C@@H](CC(C)C)C(=O)N[C@H](C(=O)NCC(=O)N[C@@H](CCC(=O)NC[C@H](NC(=O)CCCCCCCCCCCCCCCCC(=O)O)C(=O)O)C(=O)O)CSCC(=O)N[C@@H](Cc2ccc(O)cc2)C(=O)N(C)[C@@H](C)C(=O)N[C@@H](CC(N)=O)C(=O)N2CCC[C@H]2C(=O)N[C@@H](CN)C(=O)N[C@@H](CC(C)C)C(=O)N2C[C@H](O)C[C@H]2C(=O)N[C@@H](Cc2c[nH]c3ccccc23)C(=O)N[C@@H](CCN)C(=O)N[C@@H](Cc2cn(CC(=O)O)c3ccccc23)C(=O)N1C [Example 11173] ({CH2CO}-Y[NMeA]NP[Dap]L[Hyp]W[Dab][Trp(1-CH2COOH)][NMeNle][NMeNle]LCGE(Dap(Nα-HOOC(CH2)16CO)OH)-OH; thioether N-14),5.80 to 7.00
7,CCCC[C@H]1C(=O)N(C)[C@@H](CCCC)C(=O)N[C@@H](CC(C)C)C(=O)N[C@H](C(=O)NCC(=O)N[C@@H](CCC(=O)NCCOCCOCCOCCOCCOCCOCCC(=O)NC[C@H](NC(=O)CCCCCCCCCCCCCCC(=O)O)C(=O)O)C(=O)O)CSCC(=O)N[C@@H](Cc2ccc(O)cc2)C(=O)N(C)[C@@H](C)C(=O)N[C@@H](CC(N)=O)C(=O)N2CCC[C@H]2C(=O)N[C@@H](CN)C(=O)N[C@@H](CC(C)C)C(=O)N2C[C@H](O)C[C@@H]2C(=O)N[C@@H](Cc2c[nH]c3ccccc23)C(=O)N[C@@H](CCN)C(=O)N[C@@H](Cc2cn(CC(=O)O)c3ccccc23)C(=O)N1C [Example 11165] ({CH2CO}-Y[NMeA]NP[Dap]L[d(cisHyp)]W[Dab][Trp(1-CH2COOH)][NMeNle][NMeNle]LCG[γGlu][PEG6]-X10; thioether N-14),8.00 to 9.52

# Now from value to compound:
row,pIC50,Compound
1,8.00 to 9.52,CCCC[C@H]1C(=O)N(C)[C@@H](CCCC)C(=O)N[C@@H](CC(C)C)C(=O)N[C@H](C(=O)NCC(=O)N[C@@H](CC(=O)O)C(=O)NCCCOCCOCCOCCCNC(=O)CC[C@H](NC(=O)CCCCCCCCCCCCC(=O)O)C(=O)O)CSCC(=O)N[C@@H](Cc2ccc(O)cc2)C(=O)N(C)[C@@H](C)C(=O)N[C@@H](CC(N)=O)C(=O)N2CCC[C@H]2C(=O)N[C@@H](CN)C(=O)N[C@@H](CC(C)C)C(=O)N2C[C@H](O)C[C@H]2C(=O)N[C@@H](Cc2c[nH]c3ccccc23)C(=O)N[C@@H](CCN)C(=O)N[C@@H](Cc2cn(CC(=O)O)c3ccccc23)C(=O)N1C [Example 11254] ({CH2CO}-Y[NMeA]NP[Dap]L[Hyp]W[Dab][Trp(1-CH2COOH)][NMeNle][NMeNle]LCGD-X11; thioether N-14)
2,8.00 to 9.52,C#CC[C@H](NC(=O)CNC(=O)[C@@H]1CSCC(=O)N[C@@H](Cc2ccc(O)cc2)C(=O)N(C)[C@@H](C)C(=O)N[C@@H](CC(=O)O)C(=O)N2CCC[C@H]2C(=O)N[C@@H](Cc2c[nH]cn2)C(=O)N[C@@H](CCCCN)C(=O)N2C[C@H](O)C[C@H]2C(=O)N[C@@H](Cc2c[nH]c3ccccc23)C(=O)N[C@@H](CCCCN)C(=O)N[C@@H](Cc2c[nH]c3ccccc23)C(=O)N(C)[C@@H](CCCC)C(=O)N(C)[C@@H](CCCC)C(=O)N[C@@H](CCC(=O)O)C(=O)N1)C(=O)N[C@@H](CC(=O)O)C(N)=O [INT 1400B] ({CH2CO}-Y[NMeA]DPHK[Hyp]WKW[NMeNle][NMeNle]ECG[Pra]D-NH2; thioether N-14)
3,8.00 to 9.52,CCCC[C@H]1C(=O)N(C)[C@@H](CCCC)C(=O)N[C@@H](CC(C)C)C(=O)N[C@H](C(=O)NCC(=O)N[C@@H](CC(=O)NCC[C@H](NC(=O)CCCCCCCCCCCCCCCCC(=O)O)C(=O)O)C(=O)O)CSCC(=O)N[C@@H](Cc2ccc(OC)cc2)C(=O)N2CCCC[C@H]2C(=O)N[C@@H](CC(=O)O)C(=O)N2CCC[C@H]2C(=O)N[C@@H](Cc2c[nH]cn2)C(=O)N[C@@H](CCC(N)=O)C(=O)N2C[C@H](O)C[C@H]2C(=O)N[C@@H](Cc2c[nH]c3ccccc23)C(=O)N[C@@H](CCN)C(=O)N[C@@H](Cc2cn(CC(=O)O)c3ccccc23)C(=O)N1C [Example 13157] ({CH2CO}-Y(Me)[Pip]DPHQ[Hyp]W[Dab][Trp(1-CH2COOH)][NMeNle][NMeNle]LCGD(X9)-OH; thioether N-14)
